Experimental data from ChEMBL document CHEMBL5154779, “Exploration of novel phthalazinone derivatives as potential efflux transporter inhibitors for reversing multidrug resistance and improving the oral absorption of paclitaxel” (Eur J Med Chem, 2022).
Structures can show the parent of a compound that is named as a salt. One block for each molecule: values may come before it. Activity calls are given as the source filed them. The calls are words filed in the database; no cut-off is given here.

What was measured:
A549 = experiment: Antiproliferative activity against human A549 cells highly expressing EGFR after 48 hrs by MTT assay; type: functional, cell-based; details: A549, 48 h
K562 = experiment: Cytotoxicity against human K562 cells after 48 hrs by MTT assay; type: functional, cell-based; details: K562, 48 h
K562/A02 = experiment: Cytotoxicity against human K562/A02 cells after 48 hrs by MTT assay; type: functional, cell-based; details: K562/A02, 48 h
MDCK = experiment: Cytotoxicity against dog MDCK cells after 48 hrs by MTT assay; type: functional, cell-based; details: Canis lupus familiaris
[1] = Cytotoxicity against dog MDCK-II-BCRP cells after 48 hrs by MTT assay; type: functional, cell-based; details: Canis lupus familiaris
Caco-2 [2] = experiment: Cytotoxicity against human Caco-2 cells assessed as reduction in cell viability at 30 uM after 48 hrs by MTT assay; type: toxicity, cell-based; details: caco-2, 48 h
[3] = Apparent permeability of compound in human Caco-2 cells from apical to basal after 30 mins by LC-MS/MS analysis; type: ADME, cell-based
[4] = Apparent permeability of compound in human Caco-2 cells from apical to basal after 60 mins by LC-MS/MS analysis; type: ADME, cell-based
[5] = Apparent permeability of compound in human Caco-2 cells from apical to basal after 90 mins by LC-MS/MS analysis; type: ADME, cell-based
[6] = Apparent permeability of compound in human Caco-2 cells from apical to basal after 120 mins by LC-MS/MS analysis; type: ADME, cell-based
[7] = Apparent permeability of compound in human Caco-2 cells from apical to basal after 180 mins by LC-MS/MS analysis; type: ADME, cell-based
[8] = Apparent permeability of compound in human Caco-2 cells from basal to apical after 30 mins by LC-MS/MS analysis; type: ADME, cell-based
[9] = Apparent permeability of compound in human Caco-2 cells from basal to apical after 60 mins by LC-MS/MS analysis; type: ADME, cell-based
[10] = Apparent permeability of compound in human Caco-2 cells from basal to apical after 90 mins by LC-MS/MS analysis; type: ADME, cell-based
[11] = Apparent permeability of compound in human Caco-2 cells from basal to apical after 120 mins by LC-MS/MS analysis; type: ADME, cell-based
[12] = Apparent permeability of compound in human Caco-2 cells from basal to apical after 180 mins by LC-MS/MS analysis; type: ADME, cell-based
[13] = Bioavailability in male Sprague-Dawley rat at 5 mg/kg,iv measured by LC/MS analysis; type: ADME, organism-based; details: in vivo
[14] = Cmax in male Sprague-Dawley rat at 20 mg/kg,po measured by LC/MS analysis; type: ADME, organism-based; set-up: dose 20 mg/kg, route po; details: in vivo
[15] = Tmax in male Sprague-Dawley rat at 20 mg/kg,po measured by LC/MS analysis; type: ADME, organism-based; details: in vivo
[16] = AUC (0 to t) in male Sprague-Dawley rat at 20 mg/kg,po pretreated with 3-4-chloropheny1-N-4-2-morpholinoethylpheny1-4-oxo-3,4-dihydrophthalazine-1-carboxamide at 10 mg/kg measured by LC/MS analysis; type: ADME, organism-based; set-up: dose 20 mg/kg, route po; details: in vivo
[17] = Cmax in male Sprague-Dawley rat at 20 mg/kg,po pretreated with 3-4-chloropheny1-N-4-2-morpholinoethylpheny1-4-oxo-3,4-dihydrophthalazine-1-carboxamide at 10 mg/kg measured by LC/MS analysis; type: ADME, organism-based; set-up: dose 20 mg/kg, route po; details: in vivo
[18] = Tmax in male Sprague-Dawley rat at 20 mg/kg,po pretreated with 3-4-chloropheny1-N-4-2-morpholinoethylpheny1-4-oxo-3,4-dihydrophthalazine-1-carboxamide at 10 mg/kg measured by LC/MS analysis; type: ADME, organism-based; details: in vivo
[19] = Apparent oral volume of distribution in male Sprague-Dawley rat at 20 mg/kg,po pretreated with 3-4-chloropheny1-N-4-2-morpholinoethylpheny1-4-oxo-3,4-dihydrophthalazine-1-carboxamide at 10 mg/kg measured by LC/MS analysis; type: ADME, organism-based; details: in vivo
[20] = Apparent oral clearance in male Sprague-Dawley rat at 20 mg/kg,po pretreated with 3-4-chloropheny1-N-4-2-morpholinoethylpheny1-4-oxo-3,4-dihydrophthalazine-1-carboxamide at 10 mg/kg measured by LC/MS analysis; type: ADME, organism-based; details: in vivo
[21] = Oral bioavailability in male Sprague-Dawley rat at 20 mg/kg,po pretreated with 3-4-chloropheny1-N-4-2-morpholinoethylpheny1-4-oxo-3,4-dihydrophthalazine-1-carboxamide at 10 mg/kg measured by LC/MS analysis; type: ADME, organism-based; details: in vivo
in vivo = details: male, Sprague-Dawley, rat, po, 20 mg/kg
[22] = target: T1, ATP-dependent translocase ABCB1 (Homo sapiens, UniProt P08183); experiment: Inhibition of P-gp (unknown origin)
T1 sequence (P08183 whole entry): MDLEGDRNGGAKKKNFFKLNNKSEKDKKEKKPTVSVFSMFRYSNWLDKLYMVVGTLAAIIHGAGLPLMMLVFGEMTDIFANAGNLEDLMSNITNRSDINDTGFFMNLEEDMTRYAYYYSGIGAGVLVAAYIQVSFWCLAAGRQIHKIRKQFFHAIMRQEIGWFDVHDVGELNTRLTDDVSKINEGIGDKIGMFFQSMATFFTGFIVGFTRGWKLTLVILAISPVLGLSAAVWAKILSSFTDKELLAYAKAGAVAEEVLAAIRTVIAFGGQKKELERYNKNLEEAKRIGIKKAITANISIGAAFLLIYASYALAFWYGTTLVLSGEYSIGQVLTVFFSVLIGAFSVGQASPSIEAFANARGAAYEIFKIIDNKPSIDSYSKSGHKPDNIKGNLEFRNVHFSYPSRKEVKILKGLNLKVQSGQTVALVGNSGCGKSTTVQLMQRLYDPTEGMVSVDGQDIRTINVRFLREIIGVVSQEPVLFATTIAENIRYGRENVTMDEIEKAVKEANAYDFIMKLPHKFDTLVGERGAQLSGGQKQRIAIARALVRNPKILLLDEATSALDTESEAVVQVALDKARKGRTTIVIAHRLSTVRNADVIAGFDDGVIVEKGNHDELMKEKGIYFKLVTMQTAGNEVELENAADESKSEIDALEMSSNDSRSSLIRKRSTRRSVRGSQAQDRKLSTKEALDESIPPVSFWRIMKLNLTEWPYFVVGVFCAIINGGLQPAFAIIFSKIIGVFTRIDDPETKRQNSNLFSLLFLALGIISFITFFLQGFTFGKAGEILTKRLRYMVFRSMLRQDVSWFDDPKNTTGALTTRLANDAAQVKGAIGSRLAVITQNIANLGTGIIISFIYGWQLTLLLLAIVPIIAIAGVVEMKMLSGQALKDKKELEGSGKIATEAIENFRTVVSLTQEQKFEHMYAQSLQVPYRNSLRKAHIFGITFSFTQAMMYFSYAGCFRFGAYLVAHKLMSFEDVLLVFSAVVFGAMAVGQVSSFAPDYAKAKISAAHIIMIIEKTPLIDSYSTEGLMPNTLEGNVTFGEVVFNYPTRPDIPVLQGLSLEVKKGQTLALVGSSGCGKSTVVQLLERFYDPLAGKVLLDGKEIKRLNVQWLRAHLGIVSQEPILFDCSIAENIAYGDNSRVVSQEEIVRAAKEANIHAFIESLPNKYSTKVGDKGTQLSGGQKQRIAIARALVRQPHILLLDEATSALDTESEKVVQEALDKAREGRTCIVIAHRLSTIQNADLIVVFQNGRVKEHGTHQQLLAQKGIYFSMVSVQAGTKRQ

[23] = target: T1, ATP-dependent translocase ABCB1; experiment: Inhibition of P-gp in human K562/A02 cells assessed as rescue of intracellular Rhodamine 123 accumulation at 5 uM incubated for 5 to 120 mins and measured by flow cytometry analysis; type: cell-based; details: k562/a02, 5 µM, time 5-120 min
[24] = target: T2, Broad substrate specificity ATP-binding cassette transporter ABCG2 (Homo sapiens, UniProt Q9UNQ0); experiment: Inhibition of BCRP (unknown origin)
T2 sequence (Q9UNQ0 whole entry): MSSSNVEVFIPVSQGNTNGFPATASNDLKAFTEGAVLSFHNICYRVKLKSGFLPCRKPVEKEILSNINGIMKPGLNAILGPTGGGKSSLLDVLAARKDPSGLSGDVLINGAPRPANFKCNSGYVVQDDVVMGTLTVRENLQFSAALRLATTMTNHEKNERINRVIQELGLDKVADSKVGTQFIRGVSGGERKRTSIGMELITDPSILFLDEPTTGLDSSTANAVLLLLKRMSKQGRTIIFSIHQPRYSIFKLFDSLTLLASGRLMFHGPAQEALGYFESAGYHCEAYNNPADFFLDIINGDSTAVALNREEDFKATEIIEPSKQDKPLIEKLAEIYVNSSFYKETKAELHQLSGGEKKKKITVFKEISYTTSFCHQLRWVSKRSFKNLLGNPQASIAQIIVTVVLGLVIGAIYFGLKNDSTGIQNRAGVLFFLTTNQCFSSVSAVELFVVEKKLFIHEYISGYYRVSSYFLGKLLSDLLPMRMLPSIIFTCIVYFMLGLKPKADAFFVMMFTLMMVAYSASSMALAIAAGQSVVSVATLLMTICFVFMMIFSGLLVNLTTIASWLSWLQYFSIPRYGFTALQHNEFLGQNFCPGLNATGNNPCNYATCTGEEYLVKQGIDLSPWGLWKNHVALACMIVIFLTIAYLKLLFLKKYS

[25] = Reversal of BCRP-mediated multidrug resistance in dog MDCK-II-BCRP cells in presence of mitoxantrone after 48 hrs by MTT assay; type: cell-based; details: Canis lupus familiaris
[26] = target: T1, ATP-dependent translocase ABCB1; experiment: Inhibition of P-gp-mediated multidrug resistance in human K562/A02 cells assessed as adriamycin accumulation at 0.5 to 5 uM pretreated 1.5 hrs followed by treated with adriamycin measured after 4 hrs by flow cytometry analysis; type: cell-based; details: k562/a02, 1.5 h, dose 0.5-5 µM
MDCK-II-BCRP = experiment: Inhibition of BCRP-mediated multidrug resistance in dog MDCK-II-BCRP cells assessed as mitoxantrone accumulation at 0.1 to 5 uM pretreated 1.5 hrs followed by treated with mitoxantrone measured after 4 hrs by flow cytometry analysis; type: cell-based; details: Canis lupus familiaris, dose 0.1-5 µM
Caco-2 [27] = experiment: Cytotoxicity against human Caco-2 cells assessed as reduction in cell viability at 50 uM after 48 hrs by MTT assay; type: toxicity, cell-based; details: caco-2, 48 h
[28] = Reversal of P-gp-mediated multidrug resistance in human K562/A02 cells assessed as potentiation of adriamycin-induced cytotoxicity at 0.04 uM by measuring adriamycin IC50 after 48 hrs by MTT assay

IC50 (A549): > 100 µM
SMILES: O=C(Nc1ccc(N2CCOCC2)cc1)c1nn(-c2ccc(Cl)cc2)c(=O)c2ccccc12
IC50 (K562): > 100 µM | IC50 (K562/A02): > 100 µM | IC50 (MDCK): > 100 µM | IC50 [1]: > 100 µM

IC50 (A549): 69.1 µM
SMILES: O=C(NCCc1cccc(F)c1)c1nn(-c2ccc(Cl)cc2)c(=O)c2ccccc12
IC50 (K562): > 100 µM | IC50 (K562/A02): > 100 µM | IC50 (MDCK): > 100 µM | IC50 [1]: > 100 µM

IC50 (A549): 73.4 µM
SMILES: O=C(NCCCN1CCOCC1)c1nn(-c2ccc(Cl)cc2)c(=O)c2ccccc12
IC50 (K562): > 100 µM | IC50 (K562/A02): > 100 µM | IC50 (MDCK): > 100 µM | IC50 [1]: > 100 µM

Papp A→B at 0.5 h [3]: 0.09 ×10⁻⁶ cm/s | Papp A→B at 1 h [4]: 1.02 ×10⁻⁶ cm/s | Papp A→B at 1.5 h [5]: 1.98 ×10⁻⁶ cm/s | Papp A→B at 2 h [6]: 2.42 ×10⁻⁶ cm/s | Papp A→B at 3 h [7]: 2.69 ×10⁻⁶ cm/s | Papp B→A at 0.5 h [8]: 1.29 ×10⁻⁶ cm/s | Papp B→A at 1 h [9]: 2.5 ×10⁻⁶ cm/s | Papp B→A at 1.5 h [10]: 5.85 ×10⁻⁶ cm/s | Papp B→A at 2 h [11]: 11.1 ×10⁻⁶ cm/s | Papp B→A at 3 h [12]: 19.4 ×10⁻⁶ cm/s | F [13]: 100% | Cmax [14]: 112 ng/mL | Tmax [15]: 2 h | AUC(0-t) [16]: 3130 ng·h/mL | Cmax [17]: 652 ng/mL | Tmax [18]: 2.51 h | Vd/F [19]: 16 L | CL/F [20]: 103 mL/min | bioavailability [21]: 45.1% | half-life (in vivo): 1.68 h
SMILES: CC(=O)O[C@H]1C(=O)[C@@]2(C)[C@H]([C@H](OC(=O)c3ccccc3)[C@]3(O)C[C@H](OC(=O)[C@H](O)[C@@H](NC(=O)c4ccccc4)c4ccccc4)C(C)=C1C3(C)C)[C@]1(OC(C)=O)CO[C@@H]1C[C@@H]2O [PACLITAXEL]
Activity (Caco-2 [2]): < 20%

EC50 [22]: > 1 µM | inhibition (INH) [23]: Active
SMILES: COc1cc2ncnc(Nc3ccc(F)c(Cl)c3)c2cc1OCCCN1CCOCC1 [GEFITINIB]

IC50 (A549): > 100 µM
SMILES: O=C(NCCN1CCOCC1)c1nn(-c2ccc(Cl)cc2)c(=O)c2ccccc12
IC50 (K562): > 100 µM | IC50 (K562/A02): > 100 µM | IC50 (MDCK): > 100 µM | IC50 [1]: > 100 µM

IC50 (A549): > 100 µM
SMILES: O=C(NCCc1cccc(Cl)c1)c1nn(-c2ccc(Cl)cc2)c(=O)c2ccccc12
IC50 (K562): > 100 µM | IC50 (K562/A02): > 100 µM | IC50 (MDCK): > 100 µM | IC50 [1]: 51.4 µM

SMILES: COc1cc2c(cc1OC)CN(CCc1ccc(NC(=O)c3cc(OC)c(OC)cc3NC(=O)c3cnc4ccccc4c3)cc1)CC2
IC50 (MDCK): > 100 µM | IC50 [1]: > 100 µM

SMILES: COc1ccc2c3c([nH]c2c1)[C@H](CC(C)C)N1C(=O)[C@H](CCC(=O)OC(C)(C)C)NC(=O)[C@@H]1C3
IC50 (MDCK): 93.3 µM | IC50 [1]: > 100 µM

EC50 [22]: > 4.93 µM | EC50 [24]: 0.17 µM
SMILES: C#Cc1cccc(Nc2ncnc3cc(OCCOC)c(OCCOC)cc23)c1 [ERLOTINIB]

SMILES: COc1cccc2c1C(=O)c1c(O)c3c(c(O)c1C2=O)C[C@@](O)(C(=O)CO)C[C@@H]3O[C@H]1C[C@H](N)[C@H](O)[C@H](C)O1 [DOXORUBICIN HYDROCHLORIDE]
IC50 (K562): 0.92 µM | IC50 (K562/A02): 78.3 µM

inhibition (INH) [23]: Active
SMILES: COc1ccc(CCN(C)CCCC(C#N)(c2ccc(OC)c(OC)c2)C(C)C)cc1OC (stereo not given)
IC50 (K562/A02): 39.9 µM

IC50 (A549): > 100 µM
SMILES: COc1ccc(CCNC(=O)c2nn(-c3ccc(Cl)cc3)c(=O)c3ccccc23)cc1OC
IC50 (K562): > 100 µM | IC50 (K562/A02): > 100 µM | IC50 (MDCK): > 100 µM | IC50 [1]: > 100 µM

IC50 (A549): 43.5 µM
SMILES: O=C(NCCc1ccccc1)c1nn(-c2ccc(Cl)cc2)c(=O)c2ccccc12
IC50 (K562): > 100 µM | IC50 (K562/A02): > 100 µM | IC50 (MDCK): > 100 µM | IC50 [1]: 97.3 µM

IC50 (A549): > 100 µM
SMILES: O=C(Nc1ccc(CCN2CCc3ccccc3C2)cc1)c1nn(-c2ccc(Cl)cc2)c(=O)c2ccccc12
IC50 (K562): > 100 µM | IC50 (K562/A02): > 100 µM | IC50 (MDCK): > 100 µM | IC50 [1]: > 100 µM

inhibition (INH) [26]: Active | inhibition (INH) [23]: Active
SMILES: O=C(Nc1ccc(CCN2CCOCC2)cc1)c1nn(-c2ccc(Cl)cc2)c(=O)c2ccccc12
IC50 (K562): 72.8 µM | IC50 (K562/A02): 43.3 µM | IC50 (MDCK): 87.7 µM | IC50 [1]: 81.2 µM | EC50 [25]: 0.0982 µM | inhibition (MDCK-II-BCRP): Active | Activity (Caco-2 [27]): < 20% | IC50 [28]: 7232 µM

EC50 [22]: > 2.79 µM | EC50 [24]: 3.2 µM
SMILES: CS(=O)(=O)CCNCc1ccc(-c2ccc3ncnc(Nc4ccc(OCc5cccc(F)c5)c(Cl)c4)c3c2)o1 [LAPATINIB]
